From patent publication US20230181564A1, “Potent Tetrahydroquinolone Eliminates Apicomplexan Parasites” (The University of Chicago, priority 2020, published 2023)

System: Human Foreskin Fibroblast (HFF)
Test: Cytotoxicity assay with WST-1 on HFF
Assay type: cell-based
Conditions: WST assay, HFF; second value of cell
Protocol: PBS Sol/Toxicity pH7.4 refers to solubility of the compound in Phosphate Buffered Saline (PBS) at pH7.4. […] Tachy/Brady IC50 was determined in studies in which cultures of parasites in HFF were treated with varying concentrations of the compound and there was 50% inhibition of the replication (number) of parasites. Parasites were RH-YFP expressing tachyzoites (Tachy) and EGS (Brady) strains. Studies of effects of inhibitors on HFF or on T.gondii tachyzoites were performed with triplicate wells in at least two biological replicate experiments. Studies of effects on bradyzoites were performed at least twice in at least two biological replicate experiments. Compounds with much less inhibition of mammalian than T. gondii cytochrome bc in the saffarine enzyme assay (indicated by **) provide potential to further develop compounds, if unanticipated toxicity occurs from JAG21.
Cytotoxicity Assays in parallel with RH Strain T.gondii in vitro studies. Toxicity assays used WST-1 cell proliferation reagent (Roche) as in Fomovska et al. (2012). HFF were grown on a flat, clear-bottomed, black 96-well plate. Confluent HFF were treated with inhibitory compounds at concentrations of 10 μM and 50 μM. Compounds were diluted in IMDM-C, and 20 μL were added to each designated well, with triplicates for each condition. A gradient with 2 fold-decreasing concentrations of DMSO from 10% to 0% in colorless, translucent IMDM-C was used as a control. The plate was incubated for 72 hours at 37° C. 10 μL WST-1 reagent (Roche) were added to each well. Cells were incubated for 30-60 minutes. Absorbance was read using a fluorimeter at 420 nm. A higher degree of color change (and absorbance) indicated mitochondrial activity and cell viability.
Because T. gondii grows inside cells, if a compound were toxic to host HFF then it would make the compound appear to be spuriously effective (Fomovska et al. 2012; Fomovska et al. 2012a), when in actuality only toxicity for the host cell would be measured. Cytotoxicity to HFF was therefore assessed for all compounds at 10 μM. Results of this experiment are in Table 1, toxicity column. A two-way ANOVA and subsequent pairwise comparison found none of the differences in absorbance, compared to the media-DMSO vehicle controls, to be statistically significant (p>0.05). Most of these compounds are not toxic at 10 μM (the limit of solubility) and that cytotoxicity to cells can be attributed to DMSO in the solution, not the compound.

Row | SMILES | Toxicity* (highest concentration tested that does not show toxicity to HFF)
1 | Cc1[nH]c2c(c(=O)c1-c1ccc(Oc3ccc4c(c3)OCO4)cc1)CCCC2 [AS032] | ND/5 μM
2 | COc1ccc(Oc2ccc(-c3c(C)[nH]c4c(c3=O)CCCC4)cc2)cc1OC [AS033] | ND/5 μM
3 | Cc1cc2[nH]c(C)c(-c3ccc(Oc4ccc(OC(F)(F)F)cc4)cc3)c(=O)n2n1 [JAG006] | ND/5 μM
4 | CSc1nc2[nH]c(C)c(-c3ccc(Oc4ccc(OC(F)(F)F)cc4)cc3)c(=O)n2n1 [JAG013] | ND/5 μM
5 | Cc1[nH]c2c(C#N)cnn2c(=O)c1-c1ccc(Oc2ccc(OC(F)(F)F)cc2)cc1 [JAG014] | ND/5 μM
6 | Cc1[nH]c2cc(-c3ccccc3)nn2c(=O)c1-c1ccc(Oc2ccc(OC(F)(F)F)cc2)cc1 [JAG015] | ND/5 μM
7 | Cc1[nH]c2c(c(=O)c1-c1ccc(Oc3ccc(C(=O)O)cc3)nc1)CCCC2 [JAG022] | ND/5 μM
8 | Cc1c(-c2ccc(Oc3ccc(OC(F)(F)F)cc3)cc2)c(=O)c2c(n1C)CCCC2 [JAG023] | ND/5 μM
9 | Cc1c(-c2ccc(Oc3ccc(Cl)cc3)cc2)c(=O)c2c(n1C)CCCC2 [JAG077] | ND/5 μM
10 | O=C(O)c1[nH]c2c(c(=O)c1-c1ccc(Oc3ccc(OC(F)(F)F)cc3)cc1)CCCC2 [JAG091] | ND/5 μM
11 | Cc1[nH]c2c(c(=O)c1-c1ccc(Oc3ccc(OC(F)(F)F)cc3)nc1)CCCC2 [JAG092] | ND/5 μM
12 | Cc1[nH]c2c(c(=O)c1-c1ccc(O)cc1)CCCC2 [JAG094] | ND/5 μM
13 | O=c1[nH]c2c(c(=O)n1-c1ccc(Oc3ccccc3)cc1)CCCC2 [JAG095] | ND/5 μM
14 | Cc1[nH]c2c(c(=O)c1-c1ccc(Oc3ccc(OC(F)(F)F)cc3)cc1)CC(C(F)(F)F)CC2 (centres unmarked) [JAG100] | ND/5 μM
15 | Cc1[nH]c2c(c(=O)c1-c1ccc(Oc3ccc(OC(F)(F)F)cc3)cc1)CC(C)CC2 (centres unmarked) [JAG106] | ND/5 μM
16 | CCOC(=O)Oc1c2c(nc(C)c1-c1ccc(Oc3ccc(OC(F)(F)F)cc3)cc1)CCCC2 [JAG171] | ND/5 μM
17 | CCC1CCc2c([nH]c(CO)c(-c3ccc(Oc4ccc(OC(F)(F)F)cc4)cc3)c2=O)C1 (centres unmarked) [JAG174] | ND/5 μM
18 | O=c1c2c([nH]c(CO)c1-c1ccc(Oc3ccc(OC(F)(F)F)cc3)cc1)CC(C(F)(F)F)CC2 (centres unmarked) [JAG187] | ND/5 μM
19 | CC1CCc2c([nH]c(CO)c(-c3ccc(Oc4ccc(OC(F)(F)F)cc4)cc3)c2=O)C1 (centres unmarked) [JAG193] | ND/5 μM
20 | Cc1[nH]c2c(c(=O)c1-c1cccc(Oc3cc(Cl)cc(Cl)c3)c1)CCCC2 [JAG199] | ND/5 μM
21 | Cc1[nH]c2c(c(=O)c1-c1cccc(Oc3ccc(F)c(Cl)c3)c1)CCCC2 [JAG200] | ND/5 μM
22 | Cc1[nH]c2c(c(=O)c1-c1ccc(OCc3ccccc3)cc1)CCCC2 [JAG204] | ND/5 μM
23 | Cc1[nH]c2c(c(=O)c1-c1ccc(Oc3cc(Cl)cc(Cl)c3)cc1)CCC(C)C2 (centres unmarked) [JAG208] | ND/5 μM
24 | Cc1[nH]c2ccccc2c(=O)c1-c1ccc(Oc2ccccc2)cc1 [MJM129] | ND/5 μM
25 | Cc1[nH]c2ncnn2c(=O)c1-c1ccc(Oc2ccc(OC(F)(F)F)cc2)cc1 [MJM136] | ND/5 μM
26 | Cc1[nH]c2c(c(=O)c1-c1cccc(Oc3ccc(OC(F)(F)F)cc3)c1)CCCC2 [NP032] | ND/5 μM
